From ChEMBL document CHEMBL1921675, “Synthesis and cytotoxic evaluation of novel paraconic acid analogs” (Bioorg Med Chem Lett, 2011) come the findings set out here.

The subject of assay [1] is HL-60. As to the kind of experiment: Antiproliferative activity against human HL60 cells assessed as cellular growth inhibition at 10 uM after 72 hrs by MTS assay. The note with it: HL-60, 72 h, read-out: GI. It is filed as functional. On the technique in general: Tetrazolium assays rely on reduction of a dye to a coloured formazan, in cell work by metabolically active cells.

Assay [2] relates to MCF7. Nature of the assay: Antiproliferative activity against human MCF7 cells assessed as cellular growth inhibition at 10 uM after 72 hrs by MTS assay. It counts as functional. The note with it: MCF7, 72 h, read-out: GI.
The subject of assay [3] is HCT-116. As to the kind of experiment: Antiproliferative activity against human HCT116 cells assessed as cellular growth inhibition at 10 uM after 72 hrs by MTS assay. It counts as functional. The note with it: HCT-116, 72 h, read-out: GI.
Assay [4] concerns KB. Nature of the assay: Antiproliferative activity against human KB cells assessed as cellular growth inhibition at 10 uM after 72 hrs by MTS assay. The note with it: read-out: GI. It is filed as functional.
Assay [5] can be described thus: Antiproliferative activity against human HL60R cells assessed as cellular growth inhibition at 10 uM after 72 hrs by MTS assay. It counts as functional. The conditions noted are these: read-out: GI.
Assay [6] relates to KB. Nature of the assay: Antiproliferative activity against human KB cells after 72 hrs by MTS assay. It counts as functional, cell-based.
Assay [7] concerns MCF7. Nature of the assay: Antiproliferative activity against human MCF7 cells after 72 hrs by MTS assay. It counts as functional, cell-based. The note with it: MCF7, 72 h.
The test system of assay [8] is HCT-116. As to the kind of experiment: Antiproliferative activity against human HCT116 cells after 72 hrs by MTS assay. It is filed as functional, cell-based. The note with it: HCT-116, 72 h.
In the next assay the test system is SK-OV-3. Nature of the assay: Antiproliferative activity against human SKOV3 cells assessed as cellular growth inhibition at 10 uM after 72 hrs by MTS assay. It counts as functional. The note with it: SK-OV-3, 72 h, read-out: GI.
The test system of assay [9] is HL-60. Nature of the assay: Antiproliferative activity against human HL60 cells after 72 hrs by MTS assay. It counts as functional, cell-based. The conditions noted are these: HL-60, 72 h.
The nature of assay [10]: Antiproliferative activity against human MCF7/R cells assessed as cellular growth inhibition at 10 uM after 72 hrs by MTS assay. It is filed as functional. The note with it: MCF7R, read-out: GI.
The next assay concerns PC-3. Nature of the assay: Antiproliferative activity against human PC3 cells assessed as cellular growth inhibition at 10 uM after 72 hrs by MTS assay. It counts as functional. The conditions noted are these: PC-3, 72 h, read-out: GI.

pIC50: −log10 of the molar value.

Turning to `COC(=O)C1(Cc2ccc(OC)cc2)CC(=O)OC1c1ccc(F)cc1` (mixture of isomers), the inhibition of growth at 10 µM in the assay on HL-60 [1] amounted to 37%; with MCF7 [2] it was 4%; in the assay on HCT-116 [3] it was 0%; in the assay on KB [4], 33%.

As to `COC(=O)[C@@]1(Cc2ccc(OC)cc2)CC(=O)O[C@]1(C)c1ccccc1`, the inhibition of growth at 10 µM with HL-60 [1] came to 68%; in the assay with MCF7 [2], 59%; in the assay on HCT-116 [3], 56%; in the assay on KB [4], 98%.

For the compound `COC(=O)C1(Cc2ccccc2)CC(=O)OC1c1ccccc1` (mixture of isomers), the inhibition of growth at 10 µM in the assay on HL-60 [1] was 22%; in the assay with MCF7 [2], 0%; with HCT-116 [3], 0%; with KB [4], 18%.

Regarding `COC(=O)C1(Cc2ccc(OC)cc2)CC(=O)OC1c1ccccc1` (mixture of isomers), the inhibition of growth at 10 µM with HL-60 [1] is 15%; in the assay on MCF7 [2], 0%; in the assay on HCT-116 [3], 4%; in the assay with KB [4] it was 19%.

In the case of `COC(=O)C1(Cc2cccc(C(F)(F)F)c2)CC(=O)OC1(C)c1ccccc1` (mixture of isomers), the inhibition of growth at 10 µM was determined as 21% in the assay with HL-60 [1], 20% in the assay on MCF7 [2], 22% with HCT-116 [3] and 21% in the assay on KB [4].

On to `COC(=O)C1(Cc2ccccc2)CC(=O)OC1(C)c1ccccc1` (mixture of isomers), for which the inhibition of growth at 10 µM with HL-60 [1] turned out to be 22%; with MCF7 [2] it was 13%; with HCT-116 [3], 9%; in the assay on KB [4] it was 6%.

Regarding `COC(=O)C1(Cc2ccc(OC)cc2)CC(=O)OC1c1ccco1` (mixture of isomers), the inhibition of growth at 10 µM in the assay with HL-60 [1] was 29%; with MCF7 [2] it was 0%; in the assay on HCT-116 [3] it was 0%; in the assay on KB [4], 32%.

As for `COC(=O)C1(Cc2ccc(OC)cc2)CC(=O)OC1c1ccc(C(F)(F)F)cc1` (mixture of isomers), the inhibition of growth at 10 µM with HL-60 [1] was found to be 2%; in the assay with MCF7 [2] it was 4%; with HCT-116 [3], 0%; in the assay on KB [4] it was 0%.

Turning to `COC(=O)C1(Cc2cccc(C(F)(F)F)c2)CC(=O)OC1c1ccccc1` (mixture of isomers), the inhibition of growth at 10 µM was 34% in the assay on HL-60 [1], 11% with MCF7 [2], 14% with HCT-116 [3] and 39% in the assay on KB [4].

For `COC(=O)C1(Cc2ccc3c(c2)OCO3)CC(=O)OC1c1ccccc1` (mixture of isomers), the inhibition of growth at 10 µM amounted to 18% in the assay with HL-60 [1], 11% in the assay with MCF7 [2], 18% with HCT-116 [3] and 0% in the assay with KB [4].

For `CCCCCCC1OC(=O)CC1(Cc1ccc(OC)cc1)C(=O)OC` (mixture of isomers), the inhibition of growth at 10 µM in the assay on HL-60 [1] was found to be 8%; with MCF7 [2], 28%; in the assay with HCT-116 [3], 12%; in the assay on KB [4] it was 13%.

The term pIC50 denotes the negative decadic logarithm of the IC50, by convention in mol/L. A high value points to a small IC50. Regarding `COC(=O)C1(Cc2ccc(OC)cc2)CC(=O)OC1(C)c1ccccc1` (mixture of isomers), the inhibition of growth at 10 µM in assay [5] came out at 92%; in the assay with HL-60 [1] it was 82%; with MCF7 [2], 56%; with SK-OV-3 it was 76%; in assay [10], 82%; in the assay on HCT-116 [3] it was 61%. Also, the figures for the inhibition of growth at 10 µM in the assay on KB [4] and with PC-3 were 95% and 68%, respectively. The pIC50 was 6.23 in the assay with KB [6], 5.56 in the assay on MCF7 [7], 5.87 in the assay on HCT-116 [8] and 6.06 with HL-60 [9].

Consider `CCC1(c2ccccc2)OC(=O)CC1(Cc1ccc(OC)cc1)C(=O)OC` (mixture of isomers), for which the inhibition of growth at 10 µM worked out at 30% in the assay on HL-60 [1], 21% in the assay with MCF7 [2], 28% with HCT-116 [3] and 11% in the assay on KB [4].

For `COC(=O)C1(Cc2ccc(OC)cc2)CC(=O)OC1(c1ccccc1)C(F)(F)F` (mixture of isomers), the inhibition of growth at 10 µM was 64% in the assay with HL-60 [1], 8% with MCF7 [2], 20% in the assay on HCT-116 [3] and 56% in the assay on KB [4].

Turning to `COC(=O)c1ccc(CC2(C(=O)OC)CC(=O)OC2c2ccccc2)cc1` (mixture of isomers), the inhibition of growth at 10 µM with HL-60 [1] came to 19%; in the assay on MCF7 [2], 0%; in the assay on HCT-116 [3], 0%; with KB [4], 12%.

As to `COC(=O)C1(Cc2ccc(OC)cc2)CC(=O)OC1(C)c1cccc(C(F)(F)F)c1` (mixture of isomers), the inhibition of growth at 10 µM was found to be 52% in the assay with HL-60 [1], 46% in the assay on MCF7 [2], 30% in the assay with HCT-116 [3] and 38% in the assay with KB [4].

Take `COC(=O)C1(Cc2ccccc2)CC(=O)OC12CCCCC2` (racemic): the inhibition of growth at 10 µM stood at 4% in the assay on HL-60 [1], 1% in the assay with MCF7 [2], 0% with HCT-116 [3] and 7% with KB [4].

As for `COC(=O)C1(Cc2ccc(OC)cc2)CC(=O)OC1c1ccccc1C(F)(F)F` (mixture of isomers), the inhibition of growth at 10 µM was determined as 23% in the assay with HL-60 [1], 0% with MCF7 [2], 0% in the assay on HCT-116 [3] and 31% in the assay with KB [4].
